Data from patent US6534075B1, “Antimicrobial and antiviral compositions and treatments for food surfaces” (Ecolab Inc., priority 1999, dated 2003).
Read-outs that look alike come from different tables or passages of the source. Marks after values point to notes of the source that are not given here.

How the values were obtained:
S. javiana = test: Microbial reduction on Roma tomato surfaces, five minute submersion (Table 6); details: tomatoes submerged five minutes at 72° F., versus untreated control
Description: Specifically, comparison is made to the use of either sodium hypochlorite (bleach), hydrogen peroxide or peracetic acid.
Testing was performed on commercial Roma tomato surfaces using the test organism Salmonella javinia. For the pathogenic organisms, a 1:10 dilution of a 10^7 CFU/ml (colony forming units per ml) test system suspension was prepared. Whole tomatoes were placed into a plastic bag, and each bag was inoculated with a 10-mil. test system suspension, resulting in an inoculum level of […]. Bags are gently shaken for even distribution of the test system for five minutes. The produce types are then stored overnight at 4° C. Untreated controls were also prepared. Two-liter volumes of the test solutions were prepared in 4-liter beakers. Solutions were prepared in laboratory tap water to simulate industry conditions. The tomatoes were then exposed to the test solution by submersion for five minutes at 72° F. (about 22° C.). At the end of that time, the tomatoes were removed from the solution and thoroughly rinsed under fresh-running tap water. Fifty grams of the home produce (tomato), plus 100 ml buffered dilution water were placed into a stomacher bag. The tomatoes were massaged for 60 seconds. […] on TGE (Salmonella). Plates were incubated at 35° C. for 48 hours.

Feline parvovirus = details: published results against Feline parvovirus, cited from earlier work
E. coli = test: Log reduction of E. coli by liquid compositions, 30 second contact (Tables 4, 5); assay type: cell-based; details: for E. Coli Log Reduction: single component alone, pH 3, 30 second contact time, vs untreated control; for Log Reduction: E. coli
Description: Results recorded include the pH of the solution, the color of the solution and the log reduction in microbe. In Table 4, E. coli is used in all examples, while a variety of organisms (gram positive and gram negative bacteria, a yeast, a mold) are used in Table 5. [table] [table]

Z. bailii = test: Log reduction of Z. bailii by liquid compositions, 30 second contact (Table 5); assay type: cell-based
P. expansum = test: Log reduction of P. expansum by liquid compositions, 15 minute contact (Table 5); assay type: cell-based
Description: (§1) Results recorded include the pH of the solution, the color of the solution and the log reduction in microbe. In Table 4, E. coli is used in all examples, while a variety of organisms (gram positive and gram negative bacteria, a yeast, a mold) are used in Table 5.

S. aureus [1] = test: Log reduction of S. aureus by liquid compositions, 30 second contact (Table 5); assay type: cell-based; details: N-source:H2O2:KI 0:300:0 ppm, pH 5, 30 second contact
Description: as §1

S. aureus [2] = test: Food-preparation hard surface sanitizing comparison, S. aureus (Table 12); assay type: cell-based; details: actives conc. 300 ppm
Description: (§2) Table 12 compares formulas of the present invention with prior art examples of food-preparation hard surface sanitizing. […] [table]

E. coli ATCC 11229 = test: Food-preparation hard surface sanitizing comparison, E. coli (Table 12); assay type: cell-based; details: actives conc. 300 ppm; 30 second exposure
Description: as §2

Total bacterial flora = test: Meat carcass treatment, prerigor beef surfaces (Table 7); details: active antimicrobial 1000 ppm; carcass treated 30 seconds, drained 10 minutes
Description: Working Example 5 is similar to the previous example in that comparisons are made between the present invention and known commercial compositions for control of microorganisms on food surfaces. In this case, however, comparisons were made for meat carcass treatments.
Testing was performed on prerigor beef surfaces from a packing house. Total bacterial flora were tested. The carcasses were treated for 30 seconds and drained for 10 minutes. Test samples were isolated and plated for total […].

[3] = N-source:H2O2:KI 300:0:0 ppm, pH 7, 30 second contact

## CC(=O)OO [peracetic acid]
S. javiana; active antimicrobial 80 ppm
  Log Reduction: 2.8 log

## Oc1ccccc1-c1ccccc1 [o-phenylphenol G]
Feline parvovirus
  Minimum Concentration (for 10-minute inactivation): 100,000 ppm

## OCl [sodium hypochlorite]
S. javiana; active antimicrobial 30 ppm
  Log Reduction: 0.3 log
S. javiana; active antimicrobial 80 ppm
  Log Reduction: 1.9 log
Feline parvovirus
  Minimum Concentration (for 10-minute inactivation): 2,000 ppm

## lecithin
E. coli
  E. Coli Log Reduction: 0 log

## CCCCCCCCCC[N+](C)(C)CCCCCCCCCC.[Cl-] [didecyl dimethyl ammonium chloride]
Z. bailii; N-source:H2O2:KI 20:0:0 ppm, pH 3, 30 second contact
  Log Reduction: 0.1 log
P. expansum; N-source:H2O2:KI 100:0:0 ppm, pH 7, 15 minute contact
  Log Reduction: 1.0* log

## CCO [Ethanol]
Feline parvovirus
  Minimum Concentration (for 10-minute inactivation): 500,000 ppm

## C[N+](C)(C)CCO.[Cl-] [choline chloride]
E. coli; [3]
  Log Reduction: 0.0 log
E. coli
  E. Coli Log Reduction: 0 log
Z. bailii; [3]
  Log Reduction: 0.0 log

## [I-].[K+] [KI, potassium iodide]
E. coli
  E. Coli Log Reduction: 0 log
P. expansum; N-source:H2O2:KI 0:0:500 ppm, pH 5, 15 minute contact
  Log Reduction: 0.0* log

## OO [Formula H2O2, hydrogen peroxide]
E. coli; N-source:H2O2:KI 0:300:0 ppm, pH 5, 30 second contact
  Log Reduction: 0.2 log
E. coli
  E. Coli Log Reduction: 0.2 log
S. aureus [1]
  Log Reduction: 0.4 log
Z. bailii; N-source:H2O2:KI 0:532:0 ppm, pH 3, 30 second contact
  Log Reduction: 0.1 log
Z. bailii; N-source:H2O2:KI 0:532:0 ppm, pH 5, 30 second contact
  Log Reduction: 0.1 log
Z. bailii; N-source:H2O2:KI 0:532:0 ppm, pH 7, 30 second contact
  Log Reduction: 0.1 log
P. expansum; N-source:H2O2:KI 0:532:0 ppm, pH 5, 15 minute contact
  Log Reduction: 0.0* log
S. javiana; active antimicrobial 80 ppm
  Log Reduction: <0.1 log
S. aureus [2]
  Log Reduction S. aureus: 0.4 log
E. coli ATCC 11229
  Log Reduction E. coli: 0.2 log

## CC(C)O [IPA]
Feline parvovirus
  Minimum Concentration (for 10-minute inactivation): 500,000 ppm

## O=CCCCC=O [Glutaraldehyde]
Feline parvovirus; 10-minute inactivation
  Outcome noted in parentheses at the listed concentration: 2-log
Feline parvovirus; unit not given
  Minimum Concentration (for 10-minute inactivation): 10,000

## CCCCCCCCCCCCCCCC[n+]1ccccc1 [cetyl pyridinium chloride]
Total bacterial flora
  Log Reduction: 0.5 log
